US20140057884A1, “PHARMACEUTICAL COMPOSITION FOR PREVENTING OR TREATING LIVER CANCER COMPRISING STIGMASTEROL AND 5 BETA-HYDROXYSITOSTANOL ISOLATED FROM NAVICULA INCERTA” (PUKYONG NATIONAL UNIVERSITY INDUSTRY-UNIVERSITY CO, priority 2012, published 2014)
Like-named read-outs stand apart in the source and are kept apart here.

How the values were obtained:
Type in all cases: cell-based, human
MTT cell viability assay = conditions: human
Method: (§1) Cell viability was measured using MTT [3-(4,5-dimethylthiazol-2-yl)-2,5-diphenyltetrazolium bromide] assay utilizing […] MTT is reduced to purple formazan by the action of mitochondrial dehydrogenase which has viability only in living cells.
(§2) The HepG2 cells were grown in 96-well plates at a density of 2×10^4 cells/well. After 24 h, cells were treated with different concentrations ([…], 20 μM) of stigmasterol and 5β-hydroxysitostanol. After incubation for 24 h, the cells were incubated with 100 μL of MTT (1 mg/mL) for 4 h. Finally, DMSO was added so that the amount of formazan crystal was determined by measuring the absorbance at 550 nm using a multidetection microplate reader.

HepG2 cells [1] = experiment: MTT cell viability assay; conditions: for cell viability with increasing concentrations: HepG2 cells, 5-20 μM, 24 h
Method: as §1, §2

HepG2 cells [2] = experiment: Western blotting assay; conditions: HepG2 cells, 5, 10, 20 μM, 24 h, Western blot
Method: Western blotting assay was performed to investigate specific […] expression of HepG2 cells.
HepG2 cells were cultured at a density of 1×10^4 cells/ml in 10 cm^2 culture dishes for 24 h. The cells were then treated with different concentrations (5 μM, 10 μM, 20 μM) of stigmasterol and 5β-hydroxysitostanol for 24 h. The cells were lysed in cell lysis buffer to give protein extract. The extracted protein was separated by molecular weight using SDS electrophoresis. Corresponding antibodies were attached to intended protein and the protein bands were detected with ECL solution using LAS-3000 system.

HepG2 cells [3] = experiment: Cell cycle analysis (PI staining, FACS); conditions: for G2/M phase of the cell cycle as the concentration increased: HepG2 cells, 5, 10, 20 μM; for G2/M phase of the cell cycle: HepG2 cells, highest concentration (20 μM)
Method: The HepG2 cells were cultured in 6 cm^2 dishes treated with different concentrations (5 μM, 10 μM, 20 μM) of stigmasterol and 5β-hydroxysitostanol. The cells were stained with propidium iodide (PI), and the cell cycle was analyzed by measuring the amount of DNA with FACS.

HepG2 cells [4] = experiment: RT-PCR analysis of mRNA expression of apoptosis-related genes
Method: HepG2 cells treated with stigmasterol and 5β-hydroxysitostanol were treated with TRIzol® reagent were transferred to microtubes at each concentration. 200 μl, of chloroform was added to each tube and microtubes were centrifuged at 12,000×g for 15 min. After centrifugation, supernatant phase was transferred to a new microtube and mixed with isopropanol at the ratio of 1:1. After incubation for 10 min at room temperature and centrifugation at 12,000×g for 10 min, supernatant was discarded and RNA pellet was washed, followed by centrifugation at 12,000×g for 15 min. Following removal of ethanol, RNA pellet was suspended in DEPC-treated water and so that RNA pellet was dissolved at 55° C. for 10 min. Dissolved RNA pellet was kept at −20° C. for further experiments.
RT-PCR was performed to check specific mRNA expression in HepG2 cells.
Thirteen μg of RNA dissolved in DEPC— treated water and 2 μL of oligo (di) were added to PCR microtubes and denaturated at 70° C. for 5 min in a thermal cycler. Later, RT-PCR mastermix was added to microtubes to synthesize cDNA. Primers corresponding to specific RNA were bound to the synthesized cDNA, and gene amplification was carried out with the thermal cycler. The PCR products were electrophoresed on 1% agarose gel and bands of the respective primers were checked with UV.

HepG2 cells [5] = experiment: Observation of morphological changes of the cells (light microscope; fluorescence microscope after Hoechst 33342 staining); conditions: 24 h; for shape of the attached HepG2 cells / number of attached cells (living cells): light microscope; for nuclei of the attached HepG2 cells: increasing concentrations (5, 10, 20 μM), Hoechst 33342, fluorescence microscope; for number of attached cells (living cells): increasing doses
Method: HepG2 ells were grown in 12-well plates at a density of 2×10^4 cells/well. After overnight incubation, cells were treated with different concentrations ([…], 20 μM) of stigmasterol and 5β-hydroxysitostanol and incubated for another 24 h. The cells were washed with PBS. After washing, 4% (v/v) formaldehyde solution was dissolved in PBS and added to the plate, and left for 1 h at room temperature. The fixed cells were detected by a light microscope.
Further, the HepG2 cells were grown in 12-well plates at a density of 2×10^4 cells/well. After overnight incubation, cells were treated with different concentrations (5 μM, 10 μM, 20 μM) of stigmasterol and 5β-hydroxysitostanol and incubated for another 24 h. The cells were then washed with PBS. After washing, 4% (v/v) formaldehyde solution was dissolved in PBS and added to the plate, and left for 1 h at room temperature so that cells were fixated. The fixed cells were stained with staining dye, Bisbenzimide Hoechst 33342 and left for 1 h at room temperature. The stained cells were observed under fluorescence microscope.

Compound	cytotoxicity at 24 h, 5 μM (MTT cell viability assay)	cytotoxicity at 24 h, 10 μM (MTT cell viability assay)	cytotoxicity at 24 h, 20 μM (MTT cell viability assay)	cytotoxicity according to concentration (HepG2 cells [1])	cell viability with increasing concentrations (HepG2 cells [1])	expression of cell apoptosis inducing factors caspase-8, 9 (HepG2 cells [2])	G2/M phase of the cell cycle as the concentration increased (HepG2 cells [3])	G2/M phase of the cell cycle (HepG2 cells [3])	expression of caspase-8, Bax and FASL (HepG2 cells [4])	shape of the attached HepG2 cells (HepG2 cells [5])	nuclei of the attached HepG2 cells (HepG2 cells [5])	number of attached cells (living cells) (HepG2 cells [5])	cytotoxicity at 24 h, 5 μM (MTT cell viability assay; HepG2 cells, 5 μM, 24 h, MTT, read-out: inhibition of cell viability (rate))	cytotoxicity at 24 h, 10 μM (MTT cell viability assay; HepG2 cells, 10 μM, 24 h, MTT, read-out: inhibition of cell viability (rate))	cytotoxicity at 24 h, 20 μM (MTT cell viability assay; HepG2 cells, 20 μM, 24 h, MTT, read-out: inhibition of cell viability (rate))	expression of cell apoptosis inducing factors caspase-8, 9, Bax, p53, p21, FAS and FASL (HepG2 cells [4])	expression of cell apoptosis inhibiting factors Bcl-2 and XIAP (HepG2 cells [4])
CCC(CCC(C)C1CCC2C3CCC4(O)CC(O)CCC4(C)C3CCC12C)C(C)C (stereo not drawn) [5β-hydroxysitostanol]	~6%	~9%	~15%	no cytotoxicity	dose-dependent decrease	upregulate	increased	25.83%	upregulates	shrinkage	significantly condensed	remarkably reduced					
CC[C@H](/C=C/[C@@H](C)[C@H]1CC[C@H]2[C@@H]3CC=C4C[C@@H](O)CC[C@]4(C)[C@H]3CC[C@]12C)C(C)C [stigmasterol]					dose-dependent decrease	upregulate	increased	26.87%		shrinkage	significantly condensed	remarkably reduced	~40%	~43%	~54%	upregulates	downregulates
